The source of these data is US20110177105A1, “Novel Selective Inhibitors of Ubiquitin Specific Protease 7, the Pharmaceutical Compositions Thereof and Their Therapeutic Applications” (priority 2010, published 2011).

This assay addresses T1, USP5 (Homo sapiens, UniProt P45974).
T1 sequence (P45974 1-858): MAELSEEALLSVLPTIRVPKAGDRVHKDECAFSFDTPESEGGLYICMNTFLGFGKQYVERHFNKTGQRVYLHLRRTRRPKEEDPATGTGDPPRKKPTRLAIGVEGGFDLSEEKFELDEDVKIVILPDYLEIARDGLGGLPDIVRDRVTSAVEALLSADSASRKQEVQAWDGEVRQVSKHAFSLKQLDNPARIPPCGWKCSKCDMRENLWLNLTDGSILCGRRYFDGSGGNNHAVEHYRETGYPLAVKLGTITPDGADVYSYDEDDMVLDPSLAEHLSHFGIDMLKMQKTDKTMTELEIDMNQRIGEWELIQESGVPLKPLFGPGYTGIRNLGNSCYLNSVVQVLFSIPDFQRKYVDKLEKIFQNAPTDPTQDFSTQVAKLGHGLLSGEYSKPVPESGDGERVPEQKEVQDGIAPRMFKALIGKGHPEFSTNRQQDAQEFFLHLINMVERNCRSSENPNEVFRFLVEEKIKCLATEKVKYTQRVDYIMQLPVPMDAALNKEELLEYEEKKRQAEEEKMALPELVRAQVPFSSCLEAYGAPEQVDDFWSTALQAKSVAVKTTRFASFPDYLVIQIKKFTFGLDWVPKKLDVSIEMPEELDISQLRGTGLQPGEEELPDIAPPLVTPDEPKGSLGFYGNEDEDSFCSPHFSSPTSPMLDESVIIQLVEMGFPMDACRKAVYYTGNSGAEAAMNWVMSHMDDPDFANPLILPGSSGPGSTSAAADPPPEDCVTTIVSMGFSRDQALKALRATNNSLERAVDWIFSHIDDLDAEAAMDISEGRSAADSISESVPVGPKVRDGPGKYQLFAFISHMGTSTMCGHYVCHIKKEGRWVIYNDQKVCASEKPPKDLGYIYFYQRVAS
Nature of the assay: USP5 activity assay (Ub-AMC). The settings on record: 300 nM Ub-AMC, 300 pM enzyme. The format is biochemical. The procedure:
USP5 was diluted in USP buffer (50 mM Tris HCl; 0.5 mM EDTA; 5 mM DTT; 0.01% Triton X-100; Bovine Serum Albumin 0.05 mg·ml^−1 pH 7.6). Compounds stocks (100 mM) were stored at −20° C. in DMSO. Compounds were tested at different concentrations: from 200 μM to 91 nM.
Reactions were performed as duplicates in Black 384 well plates (small volume microplates; Greiner; 10 μl final reaction volume). The substrate concentration for USP5 was 300 nM Ub-AMC (Boston Biochem). The concentrations of the enzyme (USP5) in specificity assays was 300 pM. The concentrations were determined in order to perform specificity assays under initial velocities at fixed substrate concentration. Compounds were pre-incubated with enzymes for 30 minutes at 25° C. Reactions were initiated by addition of substrate to the plates containing the enzymes (+/−compounds) diluted in assay buffer. Reactions were incubated for 60 minutes at 37° C. Reactions were stopped by adding acetic acid (100 mM final). Readings were performed on a Pherastar Fluorescent Reader (BMG). λ Emission 380 nm; λ Excitation=460 nm. Data (mean values+/−standard deviation) were analyzed as % of control (no compound) and plotted as percentage versus the Log of the compound concentration using GraphPad (Prism). Data were fitted to a sigmoidal model (variable slope).
Turning to `Cc1cccc(CN2CCC(CNC(=O)c3ccc4c(Cl)c5c(nc4c3)CCCC5)CC2)c1` [Example 1, 9-Chloro-5,6,7,8-tetrahydro-acridine-3-carboxylic acid [1-(3-methyl-benzyl)-piperidin-4-ylmethyl]-amide], the IC50 (usually the concentration that inhibits the measured activity by half) is above 200 µM.

`CCN1CCCC1CNC(=O)c1ccc2c(Cl)c3c(nc2c1)CCCC3` (stereo not shown) [Example 2, 9-Chloro-5,6,7,8-tetrahydro-acridine-3-carboxylic acid (1-ethyl-pyrrolidin-2-ylmethyl)-amide] came in with a concentration for half-maximal inhibition (IC50) above 200 µM. Next, `CCCN(CCC)CCNC(=O)c1ccc2c(Cl)c3c(nc2c1)CCCC3` [Example 3, 9-Chloro-5,6,7,8-tetrahydro-acridine-3-carboxylic acid (2-dipropylamino-ethyl)-amide]: above 200 µM; `CCCCN(CC)CCNC(=O)c1ccc2c(Cl)c3c(nc2c1)CCCC3` [Example 4, 9-Chloro-5,6,7,8-tetrahydro-acridine-3-carboxylic acid [2-(butyl-ethyl-amino)-ethyl]-amide]: above 200 µM. Take `CCN(CCCNC(=O)c1ccc2c(Cl)c3c(nc2c1)CCCC3)Cc1ccccc1` [Example 5, 9-Chloro-5,6,7,8-tetrahydro-acridine-3-carboxylic acid [3-(benzyl-ethyl-amino)-propyl]-amide]: the concentration for half-maximal inhibition (IC50) was above 200 µM. Consider `CCCN(CCC)CCCNC(=O)c1ccc2c(Cl)c3c(nc2c1)CCCC3` [Example 6, 9-Chloro-5,6,7,8-tetrahydro-acridine-3-carboxylic acid (3-dipropylamino-propyl)-amide], for which the IC50 is above 200 µM. `CCN(CC)CCNC(=O)c1ccc2c(Cl)c3c(nc2c1)CCCC3` [Example 7, 9-Chloro-5,6,7,8-tetrahydro-acridine-3-carboxylic acid (2-diethylamino-ethyl)-amide] returned an IC50 above 200 µM. Next, `O=C(NCCCN1CCCC1)c1ccc2c(Cl)c3c(nc2c1)CCCC3` [Example 8, 9-Chloro-5,6,7,8-tetrahydro-acridine-3-carboxylic acid (3-pyrrolidin-1-yl-propyl)-amide]: above 200 µM; `CC1CCCC(C)N1CCCNC(=O)c1ccc2c(Cl)c3c(nc2c1)CCCC3` (stereo not shown) [Example 9, 9-Chloro-5,6,7,8-tetrahydro-acridine-3-carboxylic acid [3-(2,6-dimethyl-piperidin-1-yl)-propyl]-amide]: above 200 µM. Then `CCN(CC)CCCNC(=O)c1ccc2c(Cl)c3c(nc2c1)CCCC3` [Example 10, 9-Chloro-5,6,7,8-tetrahydro-acridine-3-carboxylic acid (3-diethylamino-propyl)-amide], with above 200 µM.

The compound `CN(C)CCNC(=O)c1ccc2c(Cl)c3c(nc2c1)CCCC3` [Example 11, 9-Chloro-5,6,7,8-tetrahydro-acridine-3-carboxylic acid (2-dimethylamino-ethyl)-amide] came in with a half-inhibitory concentration (IC50) above 200 µM. In the case of `O=C(c1ccc2c(Cl)c3c(nc2c1)CCCC3)N1CCCCCC1` [Example 12, Azepan-1-yl-(9-chloro-5,6,7,8-tetrahydro-acridin-3-yl)-methanone], the IC50 was above 200 µM.

The compound `CCCN1CCN(CCCNC(=O)c2ccc3c(Cl)c4c(nc3c2)CCCC4)CC1` [Example 13, 9-Chloro-5,6,7,8-tetrahydro-acridine-3-carboxylic acid [3-(4-propyl-piperazin-1-yl)-propyl]-amide] displayed a concentration for half-maximal inhibition (IC50) above 200 µM. `CN(CCCNC(=O)c1ccc2c(Cl)c3c(nc2c1)CCCC3)Cc1ccccc1` [Example 14, 9-Chloro-5,6,7,8-tetrahydro-acridine-3-carboxylic acid [3-(benzyl-methyl-amino)-propyl]-amide]: the concentration for half-maximal inhibition (IC50) was above 200 µM. Compound `CN1CCN(CCCNC(=O)c2ccc3c(Cl)c4c(nc3c2)CCCC4)CC1` [Example 15, 9-Chloro-5,6,7,8-tetrahydro-acridine-3-carboxylic acid [3-(4-methyl-piperazin-1-yl)-propyl]-amide] registered an IC50 above 200 µM. Compound `O=C(c1ccc2c(Cl)c3c(nc2c1)CCCC3)N1CCC(N2CCCCC2)CC1` [Example 16, [1,4′]Bipiperidinyl-1′-yl-(9-chloro-5,6,7,8-tetrahydro-acridin-3-yl)-methanone] returned an IC50 above 200 µM.
